Results: US8809549B2, “Esters of bendamustine and related compounds, and medical use thereof” (Arevipharma GmbH, priority 2012, dated 2014)

How the values were obtained:
[1] = test system: Jurkat (acute T-cell leukemia, ATCC TIB-152); test: Cytotoxicity, MTT assay, Jurkat; type: cell-based, human
Protocol: (§1) For loosely adherent cells and cells growing in suspension, the MTT-assay^[a] was used. Suspension cells were seeded at a density of 8000 cells/well (100 μl). In case of suspension cells, 100 μl of medium, containing the test compounds bendamustine HCl and bendamustine mofetil ester (or bendamustine methyl ester), were added directly after seeding of the cells. Loosely adherent cells were seeded at a density of 5000 cells/well (100 μl) and treated as described for the crystal violet assay.
(§2) In all cases, one plate was measured at the time, when substances were added (t0-plate). The MTT-(2.5 mg/ml) solution (PBS) was freshly prepared for each measurement. 20 μl of this solution were added per well (100 μl) of each plate at subsequent days. Incubation period with MTT was 3 hours at 37° C. After incubation, the plates were centrifuged, and the medium was removed to a residual volume of 50 μl per well. Then, 100 μl of DMSO were added, and the plates were shaken for 1 hour. Absorbance was measured at a wavelength of 580 nm.
(§3) Eight different human cancer cell lines were treated according to the above general procedure for comparative determination of cytotoxicity of bendamustine-HCl and bendamustine mofetil ester.

[2] = test system: HEL92.1.7 (erythroleukemia, ATCC TIB-180); test: Cytotoxicity, MTT assay, HEL92.1.7; type: cell-based, human
Protocol: as §1, §2, §3

[3] = test system: U-937 (histocytic lymphoma, ATCC CRL-1593.2); test: Cytotoxicity, MTT assay, U-937; type: cell-based, human
Protocol: as §1, §2, §3

[4] = test system: MG-63 (osteosarcoma, ATCC CRL-1427); test: Cytotoxicity, crystal violet assay, MG-63; type: cell-based, human
Protocol: (§4) For the determination of cytotoxicity two different assays were used depending on the characteristics of the treated cells. For adherently growing cells the crystal violet assay^[b] was used. Instead of complete removal of the conditioned culture medium, 100 μl of fresh medium, containing a two-fold higher concentration of the test compounds than the desired final concentration were added 2-3 days after seeding the cells at a density of about 5000 cells/well (100 μl).
as §3

[5] = test system: SK-ES1 (Ewing sarcoma, ATCC HTB-86); test: Cytotoxicity, MTT assay, SK-ES1; type: cell-based, human
Protocol: as §1, §2, §3

[6] = test system: LnCap clone FGC (prostate cancer, metastasis of a subclavicular lymph node, ATCC CRL-1740); test: Cytotoxicity, MTT assay, LnCap clone FGC; type: cell-based, human
Protocol: as §1, §2, §3

[7] = test system: Capan-1 (pancreatic carcinoma, ATCC HTB-80); test: Cytotoxicity, crystal violet assay, Capan-1; type: cell-based, human
Protocol: as §4, §3

[8] = test system: NCl-H460 (large cell bronchial carcinoma, ATCC HTB-177); test: Cytotoxicity, crystal violet assay, NCl-H460; type: cell-based, human
Protocol: as §4, §3

[9] = test system: human malignant tumour cell lines; test: Comparative cytotoxicity, all cell lines investigated; type: cell-based; settings: against all human malignant tumour cell lines investigated (Table 1)
Protocol: as §4, §1
In all cases, one plate was measured at the time, when substances were added (t0-plate). The MTT-(2.5 mg/ml) solution (PBS) was freshly prepared for each measurement. 20 μl of this solution were added per well (100 μl) of each plate at subsequent days. Incubation period with MTT was 3 hours at 37° C. […] Absorbance was measured at a wavelength of 580 nm. […]

[10] = Homo sapiens, long-term exposure (96 h), MTT assay, errors as 95% confidence intervals

**Q.** How did the “ratio (IC50 bendamustine-HCl / IC50 bendamustine mofetil ester)” value ([1]; 96 h) turn out when `Cn1c(CCCC(=O)OCCN2CCOCC2)nc2cc(N(CCCl)CCCl)ccc21` [bendamustine mofetil ester, 2-morpholinoethyl 4-(5-(bis(2-chloroethyl)amino)-1-methyl-1H-benzo[d]imidazol-2-yl)butanoate] was run?
**A.** Its value is 10.1.

**Q.** And the IC50 [1, 10]?
**A.** Its IC50 is 4.2 ± 0.3 µM.

**Q.** And the “ratio (IC50 bendamustine-HCl / IC50 bendamustine mofetil ester)” value ([2]; HEL92.1.7, 96 h)?
**A.** Its value is 24.7.

**Q.** What about the IC50 ([2]; Homo sapiens, HEL 92.1.7, HEL92.1.7, long-term exposure (96 h), MTT assay, errors as 95% confidence intervals) of the same compound?
**A.** The IC50 was 3.4 ± 0.4 µM.

**Q.** What about the IC50 ([3]; Homo sapiens, U-937, long-term exposure (96 h), MTT assay, errors as 95% confidence intervals) of the same compound?
**A.** The IC50 was 4.2 ± 0.9 µM.

**Q.** And the “ratio (IC50 bendamustine-HCl / IC50 bendamustine mofetil ester)” value ([3]; U-937, 96 h)?
**A.** The value was 21.9.

**Q.** What about the IC50 ([4]; Homo sapiens, MG-63, long-term exposure (96 h), crystal violet assay, errors as 95% confidence intervals) of the same compound?
**A.** Its IC50 is 3.4 ± 0.7 µM.

**Q.** What about the “ratio (IC50 bendamustine-HCl / IC50 bendamustine mofetil ester)” value ([4]; MG-63, 96 h) of the same compound?
**A.** Its value is 16.2.

**Q.** And the IC50 ([5]; Homo sapiens, SK-ES1, long-term exposure (96 h), MTT assay, errors as 95% confidence intervals)?
**A.** Its IC50 is 0.9 ± 0.2 µM.

**Q.** And the “ratio (IC50 bendamustine-HCl / IC50 bendamustine mofetil ester)” value ([5]; SK-ES1, 96 h)?
**A.** Its value is 12.2.

**Q.** What about the “ratio (IC50 bendamustine-HCl / IC50 bendamustine mofetil ester)” value ([6]; 96 h) of the same compound?
**A.** Its value is 34.1.

**Q.** And the IC50 [6, 10]?
**A.** The IC50 was 2.1 ± 0.6 µM.

**Q.** And the “ratio (IC50 bendamustine-HCl / IC50 bendamustine mofetil ester)” value ([7]; Capan-1, 96 h)?
**A.** Its value is 19.4.

**Q.** What about the IC50 ([7]; Homo sapiens, Capan-1, long-term exposure (96 h), crystal violet assay, errors as 95% confidence intervals) of the same compound?
**A.** The IC50 was 1.3 ± 0.3 µM.

**Q.** What about the IC50 ([8]; Homo sapiens, NCl-H460, long-term exposure (96 h), crystal violet assay, errors as 95% confidence intervals) of the same compound?
**A.** Its IC50 is 8.6 ± 0.6 µM.

**Q.** What about the “ratio (IC50 bendamustine-HCl / IC50 bendamustine mofetil ester)” value ([8]; NCl-H460, 96 h) of the same compound?
**A.** Its value is 10.4.

**Q.** And the “cytotoxicity compared to bendamustine-HCl” value [9]?
**A.** The value was “remarkably enhanced cytotoxicity”.
